Source: PubChem BioAssay (NCI)
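Dose response: 5 concentrations. Exposure: 48 h. Format: 96-well plates. Endpoint: linear interpolation; highest concentration if not reached. TGI denotes the concentration required for complete inhibition of growth.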

Assays:
Test in all cases: growth of human tumour cells (NCI), 48 h
IGROV1 ovarian = system: IGROV1 ovarian
HL-60(TB) leukemia = system: HL-60(TB) leukemia
MDA-MB-435 = system: MDA-MB-435
EKVX NSCLC = system: EKVX NSCLC
OVCAR-5 ovarian = system: OVCAR-5 ovarian
SN12C renal = system: SN12C renal
UO-31 renal = system: UO-31 renal
TK-10 renal = system: TK-10 renal
NCI/ADR-RES ovarian = system: NCI/ADR-RES ovarian
HCT-15 colon = system: HCT-15 colon
HCC-2998 colon = system: HCC-2998 colon

`COc1ccc(NC2Oc3cc4c(cc3C(c3cc(OC)c(OC)c(OC)c3)C2C)OCO4)cc1` (stereo not drawn) showed a TGI (IGROV1 ovarian) of over 100 µM, a TGI (HL-60(TB) leukemia) of 2 µM and a TGI (MDA-MB-435) of 0.565 µM. The TGI (EKVX NSCLC) was 34.1 µM, the TGI (OVCAR-5 ovarian) was over 100 µM and the TGI (SN12C renal) was over 81.5 µM. It also gave a TGI (UO-31 renal) of 22.1 µM and a TGI (TK-10 renal) of over 82.8 µM.

Compound `CC(C)CCNC(=O)c1ccc(CNC(=O)/C=C/c2ccc(OCc3ccccc3)cc2)cc1` has a TGI (NCI/ADR-RES ovarian) of over 100 µM, a TGI (HCT-15 colon) of over 100 µM and a TGI (MDA-MB-435) of over 100 µM. For the same compound, the TGI (HCC-2998 colon) was over 100 µM, the TGI (OVCAR-5 ovarian) was over 100 µM and the TGI (SN12C renal) was over 100 µM. The TGI (UO-31 renal) was over 100 µM.

`CC(=O)CC(=O)c1cc2c(=O)oc(C)cc2oc1=O` gave a TGI (NCI/ADR-RES ovarian) of over 37.5 µM, a TGI (IGROV1 ovarian) of over 37.5 µM and a TGI (HCT-15 colon) of over 37.5 µM. It also gave a TGI (HL-60(TB) leukemia) of over 37.5 µM, a TGI (EKVX NSCLC) of over 37.5 µM and a TGI (HCC-2998 colon) of over 37.5 µM. The TGI (OVCAR-5 ovarian) was over 37.5 µM, the TGI (SN12C renal) was over 37.5 µM and the TGI (UO-31 renal) was over 37.5 µM. For the same compound, the TGI (TK-10 renal) was over 37.5 µM.

For `CCN(CCCN(CC)C(=O)N[C@@H](Cc1ccccc1)C(=O)NC)C(=O)N[C@@H](Cc1ccccc1)C(=O)NC`, the TGI (NCI/ADR-RES ovarian) was over 100 µM, the TGI (HCT-15 colon) was over 100 µM and the TGI (MDA-MB-435) was over 100 µM. It also gave a TGI (EKVX NSCLC) of over 100 µM, a TGI (HCC-2998 colon) of over 100 µM and a TGI (OVCAR-5 ovarian) of over 100 µM. The TGI (UO-31 renal) was over 100 µM and the TGI (TK-10 renal) was over 100 µM.

For `O=C(OCc1ccccc1)OOC(=O)OCc1ccccc1`, the TGI (IGROV1 ovarian) was over 100 µM, the TGI (HCT-15 colon) was over 100 µM and the TGI (HL-60(TB) leukemia) was over 100 µM. The TGI (EKVX NSCLC) was over 100 µM, the TGI (HCC-2998 colon) was over 100 µM and the TGI (OVCAR-5 ovarian) was over 100 µM. The TGI (SN12C renal) was over 100 µM and the TGI (UO-31 renal) was over 100 µM.

In the case of `Nc1ncnc2c1ncn2C(=O)NC12CC3CC(CC(C3)C1)C2`, the TGI (NCI/ADR-RES ovarian) is reported as over 100 µM, the TGI (HCT-15 colon) is reported as over 100 µM and the TGI (HL-60(TB) leukemia) is reported as over 100 µM. For the same compound, the TGI (MDA-MB-435) was over 100 µM, the TGI (EKVX NSCLC) was over 100 µM and the TGI (HCC-2998 colon) was over 100 µM. For the same compound, the TGI (OVCAR-5 ovarian) was over 100 µM, the TGI (SN12C renal) was over 100 µM and the TGI (UO-31 renal) was over 100 µM. For the same compound, the TGI (TK-10 renal) was over 100 µM.

`COc1ccc(CNc2nc3ccc(C(F)(F)F)cc3nc2-c2ccccc2)cc1OC` gave a TGI (HCT-15 colon) of over 100 µM, a TGI (HL-60(TB) leukemia) of over 100 µM and a TGI (EKVX NSCLC) of over 100 µM. The TGI (HCC-2998 colon) was over 100 µM, the TGI (OVCAR-5 ovarian) was over 100 µM and the TGI (SN12C renal) was over 100 µM. The TGI (UO-31 renal) was over 100 µM and the TGI (TK-10 renal) was over 100 µM.

Compound `OCc1ccccc1C1CSCSC1` has a TGI (HCT-15 colon) of over 100 µM, a TGI (HL-60(TB) leukemia) of over 100 µM and a TGI (SN12C renal) of over 100 µM. The TGI (UO-31 renal) was over 100 µM and the TGI (TK-10 renal) was over 100 µM.

`CCOC(=O)C(=O)N1C(C)=C(C(=O)OCC)CC(C(=O)OCC)=C1C` gave a TGI (IGROV1 ovarian) of over 100 µM, a TGI (HCT-15 colon) of over 100 µM and a TGI (HL-60(TB) leukemia) of over 100 µM. For the same compound, the TGI (MDA-MB-435) was over 100 µM, the TGI (EKVX NSCLC) was over 100 µM and the TGI (HCC-2998 colon) was over 100 µM. It also gave a TGI (OVCAR-5 ovarian) of over 100 µM, a TGI (SN12C renal) of over 100 µM and a TGI (UO-31 renal) of over 100 µM. The TGI (TK-10 renal) was over 100 µM.

With `C[C@@H]1C[C@H](O)[C@]2(O)O[C@@H]3C[C@@]4(C=O)[C@@H](CC=C5[C@@H]4CC[C@]4(C)[C@@H](C6=CC(=O)OC6)CC[C@]54O)C[C@H]3O[C@@H]2O1` the TGI (NCI/ADR-RES ovarian) was 0.215 µM, the TGI (HCT-15 colon) was 0.194 µM and the TGI (HL-60(TB) leukemia) was 0.062 µM. It also gave a TGI (MDA-MB-435) of 0.151 µM, a TGI (EKVX NSCLC) of 0.215 µM and a TGI (HCC-2998 colon) of 0.285 µM. It also gave a TGI (OVCAR-5 ovarian) of 0.492 µM, a TGI (SN12C renal) of 0.131 µM and a TGI (UO-31 renal) of 0.153 µM. It also gave a TGI (TK-10 renal) of 0.186 µM.

Compound `O=C(CCc1ccc(O)cc1)c1c(O)cc(O)cc1OC1OC(CO)C(O)C(O)C1O` (stereo not drawn) has a TGI (NCI/ADR-RES ovarian) of over 100 µM, a TGI (IGROV1 ovarian) of over 100 µM and a TGI (HCT-15 colon) of over 100 µM. The TGI (MDA-MB-435) was over 100 µM, the TGI (EKVX NSCLC) was over 100 µM and the TGI (HCC-2998 colon) was over 100 µM. The TGI (OVCAR-5 ovarian) was over 100 µM, the TGI (UO-31 renal) was over 100 µM and the TGI (TK-10 renal) was over 100 µM.

`Cc1cc(C)c2c(n1)S(=O)(=O)N(CCCN1CCN(c3cccc(C(F)(F)F)c3)CC1)/C(=C(\O)c1ccc(Cl)cc1)C2=O` was tested, and the TGI (NCI/ADR-RES ovarian) was 16.4 µM, the TGI (IGROV1 ovarian) was 16.2 µM and the TGI (HCT-15 colon) was 13.9 µM. For the same compound, the TGI (HL-60(TB) leukemia) was 6.15 µM, the TGI (MDA-MB-435) was 15 µM and the TGI (EKVX NSCLC) was 10.7 µM. The TGI (OVCAR-5 ovarian) was 18.1 µM, the TGI (SN12C renal) was 13.8 µM and the TGI (UO-31 renal) was 10.8 µM. It also gave a TGI (TK-10 renal) of 11.9 µM.

`C(=Nc1ccc(-c2nc3ccccc3s2)cc1)c1ccco1` gave a TGI (NCI/ADR-RES ovarian) of over 100 µM, a TGI (IGROV1 ovarian) of over 100 µM and a TGI (HCT-15 colon) of over 100 µM. The TGI (MDA-MB-435) was over 100 µM, the TGI (EKVX NSCLC) was over 100 µM and the TGI (HCC-2998 colon) was over 100 µM. It also gave a TGI (OVCAR-5 ovarian) of over 100 µM, a TGI (SN12C renal) of over 100 µM and a TGI (UO-31 renal) of over 100 µM. It also gave a TGI (TK-10 renal) of 8.51 µM.

`O=C1C(C=NCCc2c[nH]c3ccccc23)C(C(F)(F)F)=NN1c1nc2ccccc2s1` (stereo not drawn) showed a TGI (NCI/ADR-RES ovarian) of 78 µM, a TGI (IGROV1 ovarian) of over 100 µM and a TGI (HCT-15 colon) of over 100 µM. The TGI (HL-60(TB) leukemia) was 47.8 µM, the TGI (MDA-MB-435) was 71.9 µM and the TGI (EKVX NSCLC) was 62.9 µM. It also gave a TGI (OVCAR-5 ovarian) of 78.8 µM, a TGI (SN12C renal) of over 100 µM and a TGI (UO-31 renal) of over 100 µM. For the same compound, the TGI (TK-10 renal) was 62.1 µM.

Compound `O=C(O)Cc1ccc2nc(COC(=O)c3ccccc3)sc2c1` has a TGI (NCI/ADR-RES ovarian) of over 100 µM, a TGI (IGROV1 ovarian) of over 100 µM and a TGI (HCT-15 colon) of over 100 µM. It also gave a TGI (MDA-MB-435) of over 100 µM, a TGI (EKVX NSCLC) of over 100 µM and a TGI (HCC-2998 colon) of over 100 µM. It also gave a TGI (OVCAR-5 ovarian) of over 100 µM, a TGI (SN12C renal) of over 100 µM and a TGI (UO-31 renal) of over 100 µM. For the same compound, the TGI (TK-10 renal) was over 100 µM.

`c1ccc(N=c2snc(-c3ccccc3)s2)cc1` showed a TGI (IGROV1 ovarian) of over 100 µM, a TGI (HCT-15 colon) of over 100 µM and a TGI (HL-60(TB) leukemia) of over 100 µM. It also gave a TGI (HCC-2998 colon) of over 100 µM, a TGI (SN12C renal) of over 100 µM and a TGI (UO-31 renal) of over 100 µM. It also gave a TGI (TK-10 renal) of over 100 µM.

For `O=C1NC(=S)NC(=O)C1C(c1ccccc1[N+](=O)[O-])C1C(=O)NC(=S)NC1=O`, the TGI (NCI/ADR-RES ovarian) was over 100 µM, the TGI (HCT-15 colon) was over 100 µM and the TGI (HL-60(TB) leukemia) was over 100 µM. For the same compound, the TGI (MDA-MB-435) was over 100 µM, the TGI (OVCAR-5 ovarian) was over 100 µM and the TGI (SN12C renal) was over 100 µM. The TGI (UO-31 renal) was over 100 µM and the TGI (TK-10 renal) was over 100 µM.

`O=c1nc2c(c(-c3cccc(Cl)c3)[nH]1)COC/C2=C\c1cccc(Cl)c1` was tested, and the TGI (NCI/ADR-RES ovarian) was over 100 µM, the TGI (IGROV1 ovarian) was over 100 µM and the TGI (HCT-15 colon) was over 100 µM. The TGI (MDA-MB-435) was over 100 µM, the TGI (EKVX NSCLC) was over 100 µM and the TGI (HCC-2998 colon) was over 100 µM. It also gave a TGI (OVCAR-5 ovarian) of over 100 µM, a TGI (SN12C renal) of over 100 µM and a TGI (UO-31 renal) of over 100 µM. For the same compound, the TGI (TK-10 renal) was over 100 µM.
